Measured values from patent US6534447B1, “Herbicidal pyridine compounds” (BASF Aktiengesellschaft, priority 1999, dated 2003).

Legend:
Assay type in all cases: in vivo
[1] = system: Dolium multiflorum (LOLMU, ryegrass); assay: Post-emergence herbicidal evaluation; settings: rate 0.100 kg/ha, 3 weeks after treatment
Experimental: (§1) These acetone solutions are diluted with water and the resulting formulations applied at dosage levels equivalent of about 0.025 to 0.4 kg per hectare of test compound per pot. After spraying the plants are placed on greenhouse benches and are cared for in the usual manner, commensurate with conventional greenhouse practices. From 3 weeks after treatment, the seedling plants are examined and rated according to the rating system provided above. A rating 0 indicates growth as untreated control, a rating 9 indicates death.

[2] = system: Stellaria media (STEME, chickweed); assay: Post-emergence herbicidal evaluation; settings: 3 weeks after treatment
Experimental: as §1

[3] = system: Matricaria inodora (MATIN, mayweed); assay: Post-emergence herbicidal evaluation; settings: 3 weeks after treatment
Experimental: as §1

[4] = system: Alopecurus myosuroides (ALOMY, black grass); assay: Post-emergence herbicidal evaluation; settings: 3 weeks after treatment
Experimental: as §1

[5] = system: Ipomoea hederacea (IPOHE, morning glory); assay: Post-emergence herbicidal evaluation; settings: 3 weeks after treatment
Experimental: as §1

[6] = system: Echinochloa grus galli (ECHCG, barnyard grass); assay: Post-emergence herbicidal evaluation; settings: 3 weeks after treatment
Experimental: as §1

[7] = system: Setaria viridis (SETVI, green foxtail); assay: Post-emergence herbicidal evaluation; settings: 3 weeks after treatment
Experimental: as §1

[8] = system: Abutilon theophrasti (ABUTH, velvetleaf); assay: Post-emergence herbicidal evaluation; settings: 3 weeks after treatment
Experimental: as §1

[9] = system: Galium aparine (GALAP, cleaver); assay: Post-emergence herbicidal evaluation; settings: 3 weeks after treatment
Experimental: as §1

Zea mays (ZEAMX, maize) = assay: Pre-emergence herbicidal evaluation (crop); settings: 3 weeks after treatment
Source text: (§2) The pre-emergence herbicidal activity of the compounds of the present invention is exemplified by the following test in which the seeds of a variety of monocotyledonous and dicotyledonous plants are seperately mixed with potting soil and planted on top of approximately one inch of soil in separate post. After planting, the pots are sprayed with the selected aqueous acetone solution. containing test compound in sufficient quantity to provide the equivalent of about 0.025 to 0.4 kg per hectare of test compound per pot. The treated pots are then placed on greenhouse benches, watered and cared for in accordance with conventional greenhouse procedures. From 3 weeks after treatment, the tests are terminated and each pot is examined and rated according to the rating system set forth below. [table] [table]

[10] = system: Glycine max (GLXMA, soyabeans); assay: Pre-emergence herbicidal evaluation (crop); settings: 3 weeks after treatment
Source text: as §2

[11] = system: Triticum aestivum (TRZAW, winter wheat); assay: Pre-emergence herbicidal evaluation (crop); settings: 3 weeks after treatment
Source text: as §2

[12] = system: Stellaria media (STEME, chickweed); assay: Pre-emergence herbicidal evaluation; settings: 3 weeks after treatment
Source text: as §2

[13] = system: Matricaria inodora (MATIN, mayweed); assay: Pre-emergence herbicidal evaluation; settings: 3 weeks after treatment
Source text: as §2

[14] = system: Alopecurus myosuroides (ALOMY, black grass); assay: Pre-emergence herbicidal evaluation; settings: 3 weeks after treatment
Source text: as §2

[15] = system: Ipomoea hederacea (IPOHE, morning glory); assay: Pre-emergence herbicidal evaluation; settings: 3 weeks after treatment
Source text: as §2

[16] = system: Echinochloa grus galli (ECHCG, barnyard grass); assay: Pre-emergence herbicidal evaluation; settings: 3 weeks after treatment
Source text: as §2

[17] = system: Setaria viridis (SETVI, green foxtail); assay: Pre-emergence herbicidal evaluation; settings: 3 weeks after treatment
Source text: as §2

[18] = system: Abutilon theophrasti (ABUTH, velvetleaf); assay: Pre-emergence herbicidal evaluation; settings: 3 weeks after treatment
Source text: as §2

[19] = system: Galium aparine (GALAP, cleaver); assay: Pre-emergence herbicidal evaluation; settings: 3 weeks after treatment
Source text: as §2

## Cc1cc(OCC=C(Cl)SC(F)(F)F)nc(Oc2cc(C(F)(F)F)nn2C)c1 [Example 5]
[1]
  LOLMU rating: 8 (8 - Approaching complete kill)
[2]; rate 0.025 kg/ha
  STEME rating: 4 (4 - Injury)
[2]; rate 0.100 kg/ha
  STEME rating: 5 (5 - Definite injury)
[2]; rate 0.400 kg/ha
  STEME rating: 7 (7 - Good herbicidal effect)
[3]; rate 0.025 kg/ha
  MATIN rating: 6 (6 - Herbicidal effect)
[3]; rate 0.100 kg/ha
  MATIN rating: 7 (7 - Good herbicidal effect)
[3]; rate 0.400 kg/ha
  MATIN rating: 7 (7 - Good herbicidal effect)
[4]; rate 0.025 kg/ha
  ALOMY rating: 6 (6 - Herbicidal effect)
[4]; rate 0.100 kg/ha
  ALOMY rating: 7 (7 - Good herbicidal effect)
[4]; rate 0.400 kg/ha
  ALOMY rating: 8 (8 - Approaching complete kill)
[5]; rate 0.025 kg/ha
  IPOHE rating: 9 (9 - Complete kill)
[5]; rate 0.100 kg/ha
  IPOHE rating: 9 (9 - Complete kill)
[5]; rate 0.400 kg/ha
  IPOHE rating: 9 (9 - Complete kill)
[6]; rate 0.025 kg/ha
  ECHCG rating: 7 (7 - Good herbicidal effect)
[6]; rate 0.100 kg/ha
  ECHCG rating: 8 (8 - Approaching complete kill)
[6]; rate 0.400 kg/ha
  ECHCG rating: 8 (8 - Approaching complete kill)
[7]; rate 0.025 kg/ha
  SETVI rating: 9 (9 - Complete kill)
[7]; rate 0.100 kg/ha
  SETVI rating: 9 (9 - Complete kill)
[7]; rate 0.400 kg/ha
  SETVI rating: 9 (9 - Complete kill)
[8]; rate 0.025 kg/ha
  ABUTH rating: 7 (7 - Good herbicidal effect)
[8]; rate 0.100 kg/ha
  ABUTH rating: 8 (8 - Approaching complete kill)
[8]; rate 0.400 kg/ha
  ABUTH rating: 8 (8 - Approaching complete kill)
[9]; rate 0.025 kg/ha
  GALAP rating: 7 (7 - Good herbicidal effect)
[9]; rate 0.100 kg/ha
  GALAP rating: 8 (8 - Approaching complete kill)
[9]; rate 0.400 kg/ha
  GALAP rating: 8 (8 - Approaching complete kill)
Zea mays (ZEAMX, maize); rate 0.025 kg/ha
  ZEAMX rating: 2 (2 - Slight effect)
Zea mays (ZEAMX, maize); rate 0.100 kg/ha
  ZEAMX rating: 3 (3 - Moderate effect)
Zea mays (ZEAMX, maize); rate 0.400 kg/ha
  ZEAMX rating: 4 (4 - Injury)
[10]; rate 0.025 kg/ha
  GLXMA rating: 2 (2 - Slight effect)
[10]; rate 0.100 kg/ha
  GLXMA rating: 2 (2 - Slight effect)
[10]; rate 0.400 kg/ha
  GLXMA rating: 3 (3 - Moderate effect)
[11]; rate 0.025 kg/ha
  TRZAW rating: 2 (2 - Slight effect)
[11]; rate 0.100 kg/ha
  TRZAW rating: 3 (3 - Moderate effect)
[11]; rate 0.400 kg/ha
  TRZAW rating: 6 (6 - Herbicidal effect)
[12]; rate 0.025 kg/ha
  STEME rating: 9 (9 - Complete kill)
[12]; rate 0.100 kg/ha
  STEME rating: 9 (9 - Complete kill)
[12]; rate 0.400 kg/ha
  STEME rating: 9 (9 - Complete kill)
[13]; rate 0.025 kg/ha
  MATIN rating: 8 (8 - Approaching complete kill)
[13]; rate 0.100 kg/ha
  MATIN rating: 8 (8 - Approaching complete kill)
[13]; rate 0.400 kg/ha
  MATIN rating: 9 (9 - Complete kill)
[14]; rate 0.025 kg/ha
  ALOMY rating: 7 (7 - Good herbicidal effect)
[14]; rate 0.100 kg/ha
  ALOMY rating: 8 (8 - Approaching complete kill)
[14]; rate 0.400 kg/ha
  ALOMY rating: 8 (8 - Approaching complete kill)
[15]; rate 0.025 kg/ha
  IPOHE rating: 8 (8 - Approaching complete kill)
[15]; rate 0.100 kg/ha
  IPOHE rating: 9 (9 - Complete kill)
[15]; rate 0.400 kg/ha
  IPOHE rating: 9 (9 - Complete kill)
[16]; rate 0.025 kg/ha
  ECHCG rating: 6 (6 - Herbicidal effect)
[16]; rate 0.100 kg/ha
  ECHCG rating: 8 (8 - Approaching complete kill)
[16]; rate 0.400 kg/ha
  ECHCG rating: 9 (9 - Complete kill)
[17]; rate 0.025 kg/ha
  SETVI rating: 8 (8 - Approaching complete kill)
[17]; rate 0.100 kg/ha
  SETVI rating: 9 (9 - Complete kill)
[17]; rate 0.400 kg/ha
  SETVI rating: 9 (9 - Complete kill)
[18]; rate 0.025 kg/ha
  ABUTH rating: 5 (5 - Definite injury)
[18]; rate 0.100 kg/ha
  ABUTH rating: 8 (8 - Approaching complete kill)
[18]; rate 0.400 kg/ha
  ABUTH rating: 8 (8 - Approaching complete kill)
[19]; rate 0.025 kg/ha
  GALAP rating: 5 (5 - Definite injury)
[19]; rate 0.100 kg/ha
  GALAP rating: 7 (7 - Good herbicidal effect)
[19]; rate 0.400 kg/ha
  GALAP rating: 7 (7 - Good herbicidal effect)

## Cc1cc(OCCSC(F)(F)F)nc(Oc2ccnc(C(F)(F)F)c2)c1 [Example 51]
[1]
  LOLMU rating: 8 (8 - Approaching complete kill)
[2]; rate 0.025 kg/ha
  STEME rating: 8 (8 - Approaching complete kill)
[2]; rate 0.100 kg/ha
  STEME rating: 9 (9 - Complete kill)
[2]; rate 0.400 kg/ha
  STEME rating: 9 (9 - Complete kill)
[3]; rate 0.025 kg/ha
  MATIN rating: 4 (4 - Injury)
[3]; rate 0.100 kg/ha
  MATIN rating: 6 (6 - Herbicidal effect)
[3]; rate 0.400 kg/ha
  MATIN rating: 8 (8 - Approaching complete kill)
[4]; rate 0.025 kg/ha
  ALOMY rating: 4 (4 - Injury)
[4]; rate 0.100 kg/ha
  ALOMY rating: 7 (7 - Good herbicidal effect)
[4]; rate 0.400 kg/ha
  ALOMY rating: 8 (8 - Approaching complete kill)
[5]; rate 0.025 kg/ha
  IPOHE rating: 9 (9 - Complete kill)
[5]; rate 0.100 kg/ha
  IPOHE rating: 9 (9 - Complete kill)
[5]; rate 0.400 kg/ha
  IPOHE rating: 9 (9 - Complete kill)
[6]; rate 0.025 kg/ha
  ECHCG rating: 9 (9 - Complete kill)
[6]; rate 0.100 kg/ha
  ECHCG rating: 9 (9 - Complete kill)
[6]; rate 0.400 kg/ha
  ECHCG rating: 9 (9 - Complete kill)
[7]; rate 0.025 kg/ha
  SETVI rating: 8 (8 - Approaching complete kill)
[7]; rate 0.100 kg/ha
  SETVI rating: 9 (9 - Complete kill)
[7]; rate 0.400 kg/ha
  SETVI rating: 9 (9 - Complete kill)
[8]; rate 0.025 kg/ha
  ABUTH rating: 7 (7 - Good herbicidal effect)
[8]; rate 0.100 kg/ha
  ABUTH rating: 8 (8 - Approaching complete kill)
[8]; rate 0.400 kg/ha
  ABUTH rating: 8 (8 - Approaching complete kill)
[9]; rate 0.025 kg/ha
  GALAP rating: 6 (6 - Herbicidal effect)
[9]; rate 0.100 kg/ha
  GALAP rating: 9 (9 - Complete kill)
[9]; rate 0.400 kg/ha
  GALAP rating: 9 (9 - Complete kill)
Zea mays (ZEAMX, maize); rate 0.025 kg/ha
  ZEAMX rating: 3 (3 - Moderate effect)
Zea mays (ZEAMX, maize); rate 0.100 kg/ha
  ZEAMX rating: 4 (4 - Injury)
Zea mays (ZEAMX, maize); rate 0.400 kg/ha
  ZEAMX rating: 5 (5 - Definite injury)
[10]; rate 0.025 kg/ha
  GLXMA rating: 4 (4 - Injury)
[10]; rate 0.100 kg/ha
  GLXMA rating: 5 (5 - Definite injury)
[10]; rate 0.400 kg/ha
  GLXMA rating: 6 (6 - Herbicidal effect)
[11]; rate 0.025 kg/ha
  TRZAW rating: 2 (2 - Slight effect)
[11]; rate 0.100 kg/ha
  TRZAW rating: 4 (4 - Injury)
[11]; rate 0.400 kg/ha
  TRZAW rating: 6 (6 - Herbicidal effect)
[12]; rate 0.025 kg/ha
  STEME rating: 9 (9 - Complete kill)
[12]; rate 0.100 kg/ha
  STEME rating: 9 (9 - Complete kill)
[12]; rate 0.400 kg/ha
  STEME rating: 9 (9 - Complete kill)
[13]; rate 0.025 kg/ha
  MATIN rating: 8 (8 - Approaching complete kill)
[13]; rate 0.100 kg/ha
  MATIN rating: 9 (9 - Complete kill)
[13]; rate 0.400 kg/ha
  MATIN rating: 9 (9 - Complete kill)
[14]; rate 0.025 kg/ha
  ALOMY rating: 8 (8 - Approaching complete kill)
[14]; rate 0.100 kg/ha
  ALOMY rating: 8 (8 - Approaching complete kill)
[14]; rate 0.400 kg/ha
  ALOMY rating: 8 (8 - Approaching complete kill)
[15]; rate 0.025 kg/ha
  IPOHE rating: 9 (9 - Complete kill)
[15]; rate 0.100 kg/ha
  IPOHE rating: 9 (9 - Complete kill)
[15]; rate 0.400 kg/ha
  IPOHE rating: 9 (9 - Complete kill)
[16]; rate 0.025 kg/ha
  ECHCG rating: 7 (7 - Good herbicidal effect)
[16]; rate 0.100 kg/ha
  ECHCG rating: 9 (9 - Complete kill)
[16]; rate 0.400 kg/ha
  ECHCG rating: 9 (9 - Complete kill)
[17]; rate 0.025 kg/ha
  SETVI rating: 8 (8 - Approaching complete kill)
[17]; rate 0.100 kg/ha
  SETVI rating: 8 (8 - Approaching complete kill)
[17]; rate 0.400 kg/ha
  SETVI rating: 9 (9 - Complete kill)
[18]; rate 0.025 kg/ha
  ABUTH rating: 9 (9 - Complete kill)
[18]; rate 0.100 kg/ha
  ABUTH rating: 9 (9 - Complete kill)
[18]; rate 0.400 kg/ha
  ABUTH rating: 9 (9 - Complete kill)
[19]; rate 0.025 kg/ha
  GALAP rating: 8 (8 - Approaching complete kill)
[19]; rate 0.100 kg/ha
  GALAP rating: 8 (8 - Approaching complete kill)
[19]; rate 0.400 kg/ha
  GALAP rating: 8 (8 - Approaching complete kill)
